Test [1] has as its target Cyclin-dependent kinase 5 activator 1 (Homo sapiens, UniProt Q15078+Q00535). Kind of test: Inhibition of GST-fused CDK5/p25 expressed in Escherichia coli assessed as [gamma-33P]ATP incorporation after 10 mins by scintillation counting.
Test [2] has as its target Dual specificity tyrosine-phosphorylation-regulated kinase 1A (Rattus norvegicus, UniProt Q63470). Kind of test: Inhibition of GST-fused rat recombinant DYRK1A expressed in Escherichia coli assessed as [gamma-33P]ATP incorporation after 10 mins by scintillation counting.

For eleven molecules, IC50 results are on record in BindingDB's records for doi:10.1016/j.bmc.2009.07.051 (La Rochelle University, 2009).

Bounds are passed on as bounds.

Cyclin-dependent kinase 5 activator 1, sequence (Q15078 whole entry, the tested form may be a part): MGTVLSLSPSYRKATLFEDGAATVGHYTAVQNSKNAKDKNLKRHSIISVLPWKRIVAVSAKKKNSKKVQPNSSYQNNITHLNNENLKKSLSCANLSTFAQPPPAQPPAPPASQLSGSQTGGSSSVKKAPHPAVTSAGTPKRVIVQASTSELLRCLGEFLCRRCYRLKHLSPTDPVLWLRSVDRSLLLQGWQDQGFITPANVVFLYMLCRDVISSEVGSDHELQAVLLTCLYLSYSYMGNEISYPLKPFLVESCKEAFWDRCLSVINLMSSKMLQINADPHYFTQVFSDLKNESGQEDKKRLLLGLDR
Cyclin-dependent kinase 5 activator 1, sequence (Q00535 whole entry, the tested form may be a part): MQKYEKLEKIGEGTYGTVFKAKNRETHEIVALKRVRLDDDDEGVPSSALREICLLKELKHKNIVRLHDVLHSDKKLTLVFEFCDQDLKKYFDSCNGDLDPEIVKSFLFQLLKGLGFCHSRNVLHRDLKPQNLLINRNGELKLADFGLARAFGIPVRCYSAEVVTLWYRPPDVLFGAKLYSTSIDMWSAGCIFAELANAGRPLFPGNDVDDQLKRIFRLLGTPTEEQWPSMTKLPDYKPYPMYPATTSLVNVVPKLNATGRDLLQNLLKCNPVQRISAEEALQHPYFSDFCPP

The term IC50 denotes the concentration that inhibits the measured activity by half. Take `O=C1C(C2C(=O)Nc3cc([N+](=O)[O-])ccc32)=Nc2ccc(Br)cc21` (stereo unspecified): the IC50 in test [1] is > 10 µM. Still for that read-out and setting: to `O=C1C(C2C(=O)Nc3cc([N+](=O)[O-])ccc32)=Nc2ccccc21` (stereo unspecified) [(2''Z)-6-Nitroindirubin] belongs > 10 µM. Take `O=C1C(C2C(=O)Nc3c(Br)cc([N+](=O)[O-])cc32)=Nc2ccc(Br)cc21` (stereo unspecified) [(2'Z)-5'-7-Dibromo-5-nitroindirubin]: the IC50 in test [2] and in test [1] was > 10 µM throughout. Consider `O=C1N=c2c(Br)cc([N+](=O)[O-])cc2=C1c1[nH]c2ccccc2c1O` [(2'Z)-7-Bromo-5-nitroindirubin], for which the IC50 in test [2] and in test [1] was > 10 µM each time.

`Nc1ccc2c(c1)C(c1[nH]c3ccc(Br)cc3c1N=O)C(=O)N2` (stereo unspecified) [(Z)-5'-Amino-5-bromo-1H,1'H-[2,3']biindolylidene-3,2'-dione 3-oxime]: the IC50 in test [2] was > 10 µM. For the molecule `O=C1N=c2ccc([N+](=O)[O-])cc2=C1c1[nH]c2ccccc2c1O` [(Z)-5'-Nitro-1H,1'H-[2,3']biindolylidene-3,2'-dione], the IC50 in test [2] is > 10 µM. Turning to `O=Nc1c(C2C(=O)Nc3c(Br)cc([N+](=O)[O-])cc32)[nH]c2ccc(Br)cc12` (stereo unspecified) [(Z)-5,7'-Dibromo-5'-nitro-1H,1'H-[2,3']biindolylidene-3,2'-dione 3-oxime], the IC50 in test [2] and in test [1] was > 10 µM each time.

As for `O=Nc1c(C2C(=O)Nc3ccc([N+](=O)[O-])cc32)[nH]c2ccc(Br)cc12` (stereo unspecified) [(Z)-5-Bromo-5'-nitro-1H,1'H-[2,3']biindolylidene-3,2'-dione 3-oxime], in test [2], the IC50 was > 10 µM. For the molecule `O=C1C(C2C(=O)Nc3ccc([N+](=O)[O-])cc32)=Nc2ccc(Br)cc21` (stereo unspecified) [(Z)-5-Bromo-5'-nitro-1H,1'H-[2,3']biindolylidene-3,2'-dione], the IC50 in test [2] and in test [1] was > 10 µM in each case. With `O=Nc1c(C2C(=O)Nc3c(Br)cc([N+](=O)[O-])cc32)[nH]c2ccccc12` (stereo unspecified) [(Z)-7'-Bromo-5'-nitro-1H,1'H-[2,3']biindolylidene-3,2'-dione 3-oxime], the IC50 in test [2] and in test [1] was > 10 µM in each case. Consider `CC(=O)Nc1ccc2c(c1)C(c1[nH]c3ccc(Br)cc3c1N=O)C(=O)N2` (stereo unspecified) [N-{(Z)-5-Bromo-3-[(E)-hydroxyimino]-2'-oxo-1,3,1',2'-tetrahydro-[2,3']biindolyliden-5'-yl}-acetamide], for which the IC50 in test [2] is > 10 µM.
